Test results from US20220054513A1, “COMBINATION COMPOSITIONS COMPRISING A BETA-LACTAMASE INHIBITOR” (VenatoRx Pharmaceuticals, Inc., priority 2018, published 2022).
Read-outs that look alike come from different tables or passages of the source.

Tested on: carbapenem resistant Enterobacteriaceae (CRE)
Experiment: MIC of cefiderocol with Compound 1 vs approved BL/BLI combinations, 120 CRE isolates
Experimental: A panel of 30 strains of characterized Enterobacteriaceae isolates produce Ambler class A, B, C, and D β-lactamase were used. […] IDM was prepared by adding 100 g of chelex (a chelating agent) to 1 L of sterile CAMBH and stirring for 2 hours. The chelex treated media was then filtered using a 0.2 μm filter and divalent Ca, Mg, and Zn are added back at relevant concentrations. The pH was adjusted to 7.2 using HCl and the media was filtered again to ensure sterility. This created a medium that was devoid of iron but retains appropriate concentration of other cations and was necessary for evaluating the activity of cefiderocol originating from its uptake by bacterial iron transporters. Bacteria strains were grown for 3-5 hours in CAMHB and IDM. Cefiderocol was added either to a microtiter plate in 2-fold serial dilutions in CAMHB and in parallel in IDM. […] Once the test articles were added the plates were inoculated according to CLSI broth microdilution method.
The challenge set of organisms consisted of a variety of Enterobacteriaceae species expressing IMP (n=30), NDM (30), VIM (15), KPC (n=30), and AmpC (n=15).

CC(C)(O/N=C(\C(=O)N[C@@H]1C(=O)N2C(C(=O)[O-])=C(C[N+]3(CCNC(=O)c4ccc(O)c(O)c4Cl)CCCC3)CS[C@H]12)c1csc(N)n1)C(=O)O [FDC, cefiderocol]
MIC: 0.059 µg/mL
MIC50: 1 µg/mL
MIC90: 8 µg/mL
MIC (Enterobacter cloacae, Enterobacter cloacae 1207515 (NDM-6), IDM): 64 µg/mL
MIC (Enterobacter cloacae, Enterobacter cloacae 1212159 (NDM-6), IDM): 16 µg/mL
MIC (Enterobacter cloacae, Enterobacter cloacae 1212160 (NDM-6), IDM): 16 µg/mL
MIC (Enterobacter cloacae, Enterobacter cloacae 1256568 (VIM-23), IDM): 0.125 µg/mL
MIC (Enterobacter cloacae, Enterobacter cloacae 1284042 (VIM-5), IDM): 8 µg/mL
MIC (Enterobacter cloacae, Enterobacter cloacae 1284044 (VIM-5), IDM): 4 µg/mL
MIC (Enterobacter cloacae, Enterobacter cloacae 1284065 (VIM-5), IDM): 4 µg/mL
MIC (Enterobacter cloacae, Enterobacter cloacae 1284066 (VIM-5), IDM): 32 µg/mL
MIC (Enterobacter cloacae, Enterobacter cloacae 1455568 (NDM-4), IDM): 16 µg/mL
MIC (Enterobacter cloacae, Enterobacter cloacae 1488830 (IMP-14), IDM): 2 µg/mL
MIC (Enterobacter cloacae, Enterobacter cloacae 1490669 (IMP-4), IDM): 0.25 µg/mL
MIC (Enterobacter cloacae, Enterobacter cloacae 1590932 (VIM-4), IDM): 2 µg/mL
MIC (Enterobacter cloacae, Enterobacter cloacae 1703478 (IMP-4), IDM): 0.125 µg/mL
MIC (Enterobacter cloacae, Enterobacter cloacae IHMA 908146 (ACT-1, CTX-M-22, IMP), IDM): 0.125 µg/mL
MIC (Escherichia coli, Escherichia coli 128 (AmpC, SHV-12, TOHO-2, TEM-1), IDM): 0.5 µg/mL
MIC (Escherichia coli, Escherichia coli 233 (AmpC, SHV-2, KPC-3, CTX-M-15 and TEM-1), IDM): 1 µg/mL
MIC (Escherichia coli, Escherichia coli 469 (AmpC, SHV-12, TEM-1), IDM): 0.5 µg/mL
MIC (Escherichia coli, Escherichia coli 3073 (AmpC, CTX-M-3), IDM): 1 µg/mL
MIC (Escherichia coli, Escherichia coli 3102 (AmpC, CTX-M-15, TEM-1), IDM): 0.059 µg/mL
MIC (Escherichia coli, Escherichia coli 54321 (AmpC, CTX-M-15, TEM-1), IDM): 2 µg/mL
MIC (Escherichia coli, Escherichia coli 64167 (AmpC, TEM-1, GES-5), IDM): 0.25 µg/mL
MIC (Escherichia coli, Escherichia coli 786978 (KPC-2), IDM): 0.5 µg/mL
MIC (Escherichia coli, Escherichia coli 1266865 (NDM-5), IDM): 8 µg/mL
MIC (Escherichia coli, Escherichia coli 1275629 (VIM-23), IDM): 0.5 µg/mL
MIC (Escherichia coli, Escherichia coli 1275635 (VIM-23), IDM): 0.5 µg/mL
MIC (Escherichia coli, Escherichia coli 1371539 (NDM-6), IDM): 2 µg/mL
MIC (Escherichia coli, Escherichia coli 1424126 (NDM-5), IDM): 128 µg/mL
MIC (Escherichia coli, Escherichia coli 1438691 (NDM-5), IDM): 16 µg/mL
MIC (Escherichia coli, Escherichia coli 1438767 (NDM-5), IDM): 128 µg/mL
MIC (Escherichia coli, Escherichia coli 1468388 (IMP-59), IDM): 2 µg/mL
MIC (Escherichia coli, Escherichia coli CH1 (AmpC, TEM-1, CTX-M-15, SHV-5, SHV-1), IDM): 0.25 µg/mL
MIC (Escherichia coli, Escherichia coli EC15521A (AmpC, CMY-2, TEM-1), IDM): 4 µg/mL
MIC (Escherichia coli, Escherichia coli EC15522A (AmpC, CMY-2, TEM-1, CTX-M-15), IDM): 0.059 µg/mL
MIC (Escherichia coli, Escherichia coli J53 (SHV-5, AmpC, TEM-1), IDM): 0.03 µg/mL
MIC (Escherichia coli, Escherichia coli SI-LP505 (AmpC, CTX-M-14, TEM-1), IDM): 0.5 µg/mL
MIC (Escherichia coli, Escherichia coli SI-LP574 (AmpC, CTX-M-14, TEM-1), IDM): 0.059 µg/mL
MIC (Escherichia coli, Escherichia coli SI-P026 (AmpC, CMY-2, TEM-1), IDM): 0.059 µg/mL
MIC (Escherichia coli, Escherichia coli SI-Vr059 (AmpC, CTX-M-32 and TEM-1), IDM): 2 µg/mL
MIC (Klebsiella aerogenes, Enterobacter aerogenes 847438 (CTX-M-2, KPC), IDM): 0.059 µg/mL
MIC (Klebsiella aerogenes, Enterobacter aerogenes CDC-0161 (IMP-4, TEM-1B, OXA-1, SFO-1), IDM): 2 µg/mL
MIC (Klebsiella aerogenes, Enterobacter aerogenes IHMA 846505 (CMY-2, IMP), IDM): 0.5 µg/mL
MIC (Klebsiella aerogenes, Enterobacter aerogenes IHMA 890184 (IMP), IDM): 0.059 µg/mL
MIC (Klebsiella oxytoca, Klebsiella oxytoca 847537 (KPC-2), IDM): 1 µg/mL
MIC (Klebsiella oxytoca, Klebsiella oxytoca 847539 (CTX-M-2, KPC), IDM): 1 µg/mL
MIC (Klebsiella oxytoca, Klebsiella oxytoca 1274060 (IMP-4), IDM): 0.059 µg/mL
MIC (Klebsiella oxytoca, Klebsiella oxytoca 1417076 (IMP-8), IDM): 4 µg/mL
MIC (Klebsiella oxytoca, Klebsiella oxytoca 1417077 (IMP-8), IDM): 4 µg/mL
MIC (Klebsiella oxytoca, Klebsiella oxytoca 1585615 (IMP-4), IDM): 0.25 µg/mL
MIC (Klebsiella oxytoca, Klebsiella oxytoca 1622674 (VIM-44), IDM): 1 µg/mL
MIC (Klebsiella oxytoca, Klebsiella oxytoca IHMA 871515 (IMP, KPC-2, SHV-12), IDM): 1 µg/mL
MIC (Klebsiella oxytoca, Klebsiella oxytoca IHMA 871516 (IMP, KPC-2, SHV-12), IDM): 0.059 µg/mL
MIC (Klebsiella oxytoca, Klebsiella oxytoca IHMA 871518 (IMP, KPC-2, SHV-12), IDM): 1 µg/mL
MIC (Klebsiella pneumoniae, Klebsiella pneumoniae 845661 (KPC-3), IDM): 1 µg/mL
MIC (Klebsiella pneumoniae, Klebsiella pneumoniae 845662 (KPC-3), IDM): 4 µg/mL
MIC (Klebsiella pneumoniae, Klebsiella pneumoniae 845665 (KPC-3), IDM): 1 µg/mL
MIC (Klebsiella pneumoniae, Klebsiella pneumoniae 845667 (KPC-3), IDM): 1 µg/mL
MIC (Klebsiella pneumoniae, Klebsiella pneumoniae 845670 (KPC-3), IDM): 0.25 µg/mL
MIC (Klebsiella pneumoniae, Klebsiella pneumoniae 845904 (KPC-3), IDM): 2 µg/mL
MIC (Klebsiella pneumoniae, Klebsiella pneumoniae 847204 (KPC-2), IDM): 0.5 µg/mL
MIC (Klebsiella pneumoniae, Klebsiella pneumoniae 847375 (SHV-12, KPC-2), IDM): 1 µg/mL
MIC (Klebsiella pneumoniae, Klebsiella pneumoniae 847378 (SHV-12, KPC-2), IDM): 4 µg/mL
MIC (Klebsiella pneumoniae, Klebsiella pneumoniae 847379 (CTX-M-2, KPC-2), IDM): 0.125 µg/mL
MIC (Klebsiella pneumoniae, Klebsiella pneumoniae 847383 (KPC-2), IDM): 2 µg/mL
MIC (Klebsiella pneumoniae, Klebsiella pneumoniae 847384 (SHV-12, KPC-2), IDM): 1 µg/mL
MIC (Klebsiella pneumoniae, Klebsiella pneumoniae 847387 (SHV-12, KPC-2), IDM): 2 µg/mL
MIC (Klebsiella pneumoniae, Klebsiella pneumoniae 847747 (CTX-M-2, KPC), IDM): 0.5 µg/mL
MIC (Klebsiella pneumoniae, Klebsiella pneumoniae 848561 (SHV-11, CTX-M-3, KPC), IDM): 2 µg/mL
MIC (Klebsiella pneumoniae, Klebsiella pneumoniae 848562 (SHV-11, KPC-3), IDM): 1 µg/mL
MIC (Klebsiella pneumoniae, Klebsiella pneumoniae 848563 (KPC-3), IDM): 0.5 µg/mL
MIC (Klebsiella pneumoniae, Klebsiella pneumoniae 848566 (SHV-11, KPC-3), IDM): 1 µg/mL
MIC (Klebsiella pneumoniae, Klebsiella pneumoniae 848600 (KPC-3), IDM): 1 µg/mL
MIC (Klebsiella pneumoniae, Klebsiella pneumoniae 848788 (KPC-2), IDM): 0.5 µg/mL
MIC (Klebsiella pneumoniae, Klebsiella pneumoniae 848790 (KPC-2), IDM): 2 µg/mL
MIC (Klebsiella pneumoniae, Klebsiella pneumoniae 848791 (SHV-12, KPC-2), IDM): 4 µg/mL
MIC (Klebsiella pneumoniae, Klebsiella pneumoniae 848828 (SHV-12, KPC-2), IDM): 4 µg/mL
MIC (Klebsiella pneumoniae, Klebsiella pneumoniae 848832 (KPC-2), IDM): 0.5 µg/mL
MIC (Klebsiella pneumoniae, Klebsiella pneumoniae 848842 (SHV-2A, KPC-2), IDM): 1 µg/mL
MIC (Klebsiella pneumoniae, Klebsiella pneumoniae 848844 (SHV-11, KPC-2), IDM): 4 µg/mL
MIC (Klebsiella pneumoniae, Klebsiella pneumoniae 890066 (SHV-33; TEM-33; CTX-M-15; IMP-1), IDM): 0.5 µg/mL
MIC (Klebsiella pneumoniae, Klebsiella pneumoniae 1212142 (NDM-6), IDM): 4 µg/mL
MIC (Klebsiella pneumoniae, Klebsiella pneumoniae 1212258 (NDM-6), IDM): 4 µg/mL
MIC (Klebsiella pneumoniae, Klebsiella pneumoniae 1212290 (NDM-6), IDM): 4 µg/mL
